Values quoted from earlier work, collected in patent publication US12253499B2, “Thin-layer chromatography system and method for assessing analyte concentrations in samples” (UCL BUSINESS LTD, priority 2017, dated 2025).
Like-named read-outs stand apart in the source and are kept apart here.

Key:
[1] = inter-individual variability
[2] = for Therapeutic window / Therapeutic window (μg/mL): Leading candidate drugs for TDM
topoisomerase I = molecular target: T1, topoisomerase I (Homo sapiens, UniProt P11387); settings: relative to Irinotecan
T1 sequence (P11387 1-765): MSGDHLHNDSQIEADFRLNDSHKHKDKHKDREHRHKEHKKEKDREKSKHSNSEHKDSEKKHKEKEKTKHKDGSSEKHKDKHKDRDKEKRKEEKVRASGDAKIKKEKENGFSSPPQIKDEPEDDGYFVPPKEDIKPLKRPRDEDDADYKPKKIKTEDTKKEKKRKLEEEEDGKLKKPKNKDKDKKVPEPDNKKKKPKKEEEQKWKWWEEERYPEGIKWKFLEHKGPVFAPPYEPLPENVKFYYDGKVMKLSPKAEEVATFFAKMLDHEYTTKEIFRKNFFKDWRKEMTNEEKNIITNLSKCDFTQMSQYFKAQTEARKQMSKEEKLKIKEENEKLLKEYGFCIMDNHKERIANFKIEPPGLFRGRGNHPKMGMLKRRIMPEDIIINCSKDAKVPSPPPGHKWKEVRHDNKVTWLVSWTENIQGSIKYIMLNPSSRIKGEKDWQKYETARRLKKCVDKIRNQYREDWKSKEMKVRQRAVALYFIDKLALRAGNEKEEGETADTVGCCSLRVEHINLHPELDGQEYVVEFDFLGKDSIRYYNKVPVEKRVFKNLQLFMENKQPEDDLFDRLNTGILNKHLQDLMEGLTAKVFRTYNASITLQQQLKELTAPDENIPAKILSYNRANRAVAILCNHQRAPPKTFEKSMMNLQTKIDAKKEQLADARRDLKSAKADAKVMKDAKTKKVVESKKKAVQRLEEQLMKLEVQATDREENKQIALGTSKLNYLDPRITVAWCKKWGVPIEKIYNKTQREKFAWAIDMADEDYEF

[3] = relative to Irinotecan
[4] = Table D, In-depth list of candidate drugs
[5] = Table D, In-depth list of candidate drugs, given as daily dose

Compound	Window [2, 4]	other results
O=c1[nH]cc(F)c(=O)[nH]1 [5-fluoruoracil, 5-fluorouracil]	2000 to 3000 µg/mL	Plasma drug concentrations vary [1]: ≤ 100 fold; Therapeutic window ([2]; Table D): 2000 to 3000 µg/mL
NCC[C@H](O)C(=O)N[C@@H]1C[C@H](N)[C@@H](O[C@H]2O[C@H](CN)[C@@H](O)[C@H](O)[C@H]2O)[C@H](O)[C@H]1O[C@H]1O[C@H](CO)[C@@H](O)[C@H](N)[C@H]1O [Amikacin]	5 to 15 µg/mL	–
CCCCc1oc2ccccc2c1C(=O)c1cc(I)c(OCCN(CC)CC)c(I)c1 [Amiodarone]	0.5 to 2 µg/mL	Therapeutic window (μg/mL) ([2]; Table D): 0.5-2^ μg/mL
CS(=O)(=O)OCCCCOS(C)(=O)=O [Busulfan]	0.9 to 1 µg/mL	–
NC(=O)N1c2ccccc2C=Cc2ccccc21 [Carbamazepine]	5 to 10 µg/mL	–
O=C(O)c1cn(C2CC2)c2cc(N3CCNCC3)c(F)cc2c1=O [Ciprofloxacin]	0.1 to 8.3 µg/mL	Therapeutic window ([2]; Table D): 0.1 to 8.3 µg/mL
CN1C(=O)CC(=O)N(c2ccccc2)c2cc(Cl)ccc21 [Clobazam]	Varies, 0.2-5 ug/mL	–
O=C1CN=C(c2ccccc2Cl)c2cc([N+](=O)[O-])ccc2N1 [Clonazepam]	20 to 80 µg/mL	–
CC(C)N(CCC(C(N)=O)(c1ccccc1)c1ccccn1)C(C)C (stereo not drawn) [Disopyramide]	2 to 4 µg/mL	–
COc1cccc2c1C(=O)c1c(O)c3c(c(O)c1C2=O)C[C@@](O)(C(=O)CO)C[C@@H]3O[C@H]1C[C@H](N)[C@H](O)[C@H](C)O1 [Doxorubicin]	–	Therapeutic window ([2]; Table D): 10 to 58 µg/mL
CCC1(C)CC(=O)NC1=O (stereo not drawn) [Ethosuximide]	40 to 100 µg/mL	–
COc1cc([C@@H]2c3cc4c(cc3[C@@H](O[C@@H]3O[C@@H]5CO[C@@H](C)O[C@H]5[C@H](O)[C@H]3O)[C@H]3COC(=O)[C@H]23)OCO4)cc(OC)c1O [Etopisode]	–	Therapeutic window ([2]; Table D): 1 to 10 µg/mL
NC(=O)OCC(COC(N)=O)c1ccccc1 [Felbamate]	50 to 110 µg/mL	–
NCC1(CC(=O)O)CCCCC1 [Gabapentin]	2 to 20 µg/mL	–
CCC(C)n1ncn(-c2ccc(N3CCN(c4ccc(OCC5COC(Cn6cncn6)(c6ccc(Cl)cc6Cl)O5)cc4)CC3)cc2)c1=O (stereo not drawn) [Itraconazole]	0.5 to 17 µg/mL	Therapeutic window ([2]; Table D): 0.5 to 17 µg/mL
Nc1nnc(-c2cccc(Cl)c2Cl)c(N)n1 [Lamotrigine]	2.5 to 15 µg/mL	–
CC[C@@H](C(N)=O)N1CCCC1=O [Levetiracetam]	10 to 40 µg/mL	Window ([2]; Table D, In-depth list of candidate drugs, listed as Leveltiracetam): 20 to 40 µg/mL
CCN(CC)CC(=O)Nc1c(C)cccc1C [Lidocaine]	1.5 to 5 µg/mL	–
CC(=O)NC[C@H]1CN(c2ccc(N3CCOCC3)c(F)c2)C(=O)O1 [Linezolid]	1.75 to 7.53 µg/mL	Therapeutic window ([2]; Table D): 1.8 to 7.5 µg/mL
[Li] [Lithium]	0.6-1.2 mEq/L	–
Cc1cccc(C)c1OCC(C)N (stereo not drawn) [Mexiletine]	0.5 to 2.5 µg/mL	Therapeutic window ([2]; Table D): 0.5 to 2.5 µg/mL
COc1c(C)c2c(c(O)c1C/C=C(\C)CCC(=O)O)C(=O)OC2 [Mycophenolic Acid]	1 to 4 µg/mL	Therapeutic window ([2]; Table D): 1 to 4 µg/mL
CCN(CC)CCNC(=O)c1ccc(NC(C)=O)cc1 [NAPA]	4 to 8 µg/mL	Therapeutic window ([2]; Table D): 4 to 8 µg/mL
O=C1CN=C(c2ccccc2)c2cc([N+](=O)[O-])ccc2N1 [Nitrazepam]	0.03 to 0.1 µg/mL	–
C1CCC(C(CC2CCCCN2)C2CCCCC2)CC1 (stereo not drawn) [Perhexeline]	0.3 to 4 µg/mL	–

Compound	Window [2, 4]	other results
O=C1NC(=O)C(c2ccccc2)(c2ccccc2)N1 [Phenytoin]	10 to 20 µg/mL	–
CC[C@@H]([C@H](C)O)n1ncn(-c2ccc(N3CCN(c4ccc(OC[C@@H]5CO[C@@](Cn6cncn6)(c6ccc(F)cc6F)C5)cc4)CC3)cc2)c1=O [Posaconazole]	~0.7 µg/mL	Therapeutic window (μg/mL) ([2]; Table D): Maintain at 0.7 μg/mL
CCC1(c2ccccc2)C(=O)NCNC1=O [Primidone]	5 to 12 µg/mL	–
C=C[C@H]1C[N@@]2CC[C@H]1C[C@@H]2[C@@H](O)c1ccnc2ccc(OC)cc12 [Quinidine]	2 to 5 µg/mL	Therapeutic window ([2]; Table D): 2 to 5 µg/mL
CCc1c2c(nc3ccc(O)cc13)-c1cc3c(c(=O)n1C2)COC(=O)[C@]3(O)CC [SN-38, 7-ethyl-10-hydroxycampto-thecin]	–	more potent at inhibiting topoisomerase I than the parent Irinotecan (topoisomerase I): up to 1,000; concentration of SN-38 lower than that of Irinotecan [3]: over 30 times
O=C(O)c1ccccc1O [Salicylate]	15 to 30 µg/mL	Therapeutic window ([2]; Table D): 15 to 30 µg/mL
CO[C@H]1C[C@@H]2CC[C@@H](C)[C@@](O)(O2)C(=O)C(=O)N2CCCC[C@H]2C(=O)O[C@H]([C@H](C)C[C@@H]2CC[C@@H](O)[C@H](OC)C2)CC(=O)[C@H](C)/C=C(\C)[C@@H](O)[C@@H](OC)C(=O)[C@H](C)C[C@H](C)/C=C/C=C/C=C/1C [Sirolimus]	0.005 to 0.01 µg/mL	–
C=CC[C@@H]1/C=C(\C)C[C@H](C)C[C@H](OC)[C@H]2O[C@@](O)(C(=O)C(=O)N3CCCC[C@H]3C(=O)O[C@H](/C(C)=C/[C@@H]3CC[C@@H](O)[C@H](OC)C3)[C@H](C)[C@@H](O)CC1=O)[C@H](C)C[C@@H]2OC [Tacrolimus]	5 to 20 µg/mL	–
Cn1c(=O)c2[nH]cnc2n(C)c1=O [Theophylline]	5 to 15 µg/mL	–
Cc1ccsc1C(=CCCN1CCC[C@@H](C(=O)O)C1)c1sccc1C [Tiagibine]	0.02 to 0.2 µg/mL	–
NC[C@H]1O[C@H](O[C@H]2[C@H](O)[C@@H](O[C@H]3O[C@H](CO)[C@@H](O)[C@H](N)[C@H]3O)[C@H](N)C[C@@H]2N)[C@H](N)C[C@@H]1O [Tobramicin]	2 to 10 µg/mL	–
CC1(C)O[C@@H]2[C@@H](CO[C@@]3(COS(N)(=O)=O)OC(C)(C)O[C@@H]23)O1 [Topiramate]	2 to 10 µg/mL	–
CCCC(CCC)C(=O)O [Valproic acid]	50 to 125 µg/mL	–
CN[C@H](CC(C)C)C(=O)N[C@H]1C(=O)N[C@@H](CC(N)=O)C(=O)N[C@H]2C(=O)N[C@H]3C(=O)N[C@H](C(=O)N[C@H](C(=O)O)c4cc(O)cc(O)c4-c4cc3ccc4O)[C@H](O)c3ccc(c(Cl)c3)Oc3cc2cc(c3O[C@@H]2O[C@H](CO)[C@@H](O)[C@H](O)[C@H]2O[C@H]2C[C@](C)(N)[C@H](O)[C@H](C)O2)Oc2ccc(cc2Cl)[C@H]1O [Vancomycin]	10 to 20 µg/mL	–
C=CC(N)CCC(=O)O (stereo not drawn) [Vigabratin]	0.8 to 36 µg/mL	–
NS(=O)(=O)Cc1noc2ccccc12 [Zonisamide]	10 to 40 µg/mL	–
Cc1nc(Nc2ncc(C(=O)Nc3c(C)cccc3Cl)s2)cc(N2CCN(CCO)CC2)n1 [dasatinib]	~0.05 µg/mL	–
C#Cc1cccc(Nc2ncnc3cc(OCCOC)c(OCCOC)cc23)c1 [erlotinib]	–	Window [2, 5]: 100 to 150 mg/day
CNC(=O)c1cc(Oc2ccc(NC(=O)Nc3ccc(Cl)c(C(F)(F)F)c3)cc2)ccn1 [sorafenib]	–	Window [2, 5]: 800 mg/day
Adalimumab	–	Window ([2]; in vivo): 3.5 to 7 µg/mL
Certolizumab pegol: antibody for autoimmune diseases	–	Window ([2]; in vivo): 3 to 84 µg/mL
Infliximab: antibody for autoimmune diseases	–	Window ([2]; in vivo): ~3.8 µg/mL
Teicoplanin	10 to 60 µg/mL	–
retuximab: cancer drug listed in Table D; not natively fluorescent, requires label	–	Window ([2]; in vivo): Maintain at 375 mg/m^2
